Experiments:
eIF4A2:poly r(AG)8 RNA = target: T1, eIF4A2:poly r(AG)8 RNA (Homo sapiens, UniProt Q14240); test: fluorescence polarization (FP) assay, eIF4A2 binding to FAM-labelled RNA; details: 10 μM CR-1-31-B
T1 construct: His6 (N); made in house; host or cells: E. coli BL21 (DE3)
Excerpt: Rocaglates similarly enhance RNA binding of eIF4A1 and eIF4A2. In order to rapidly evaluate the ability of rocaglates to stimulate binding of eIF4A to RNA, a fluorescence polarization (FP) assay using a FAM (fluorescein amidite)-labelled RNA probe (FIG. 18A) was used. […] Due to the high degree of shared amino acid identity between the two paralogs, their apparent similarity with respect to RNA binding activity and response to CR-1-31-B (23), and the fact that eIF4A1 is essential but eIF4A2 is not, eIF4A1 was used in the majority of our subsequent experiments.
Fluorescence Polarization (FP) Assays. Unless otherwise specified, eIF4A (500 nM) was incubated with 10 nM FAM-labelled RNA for 30 min in FP buffer (14.4 mM HEPES-NaOH (pH 8), 108 mM NaCl, 1 mM MgCl2, 14.4% glycerol, 0.1% DMSO, 2 mM DTT, 1 mM AMPPNP) at room temperature in black low volume 384 well plates (Corning 3820). FP readings were performed on a Pherastar FS microplate reader (BMG Labtech).
FIGS. 17A-17F. Assessment of eIF4A1 and eIF4A2 RNA binding specificity. 17A. Chemical structure of the most commonly used rocaglates in biological studies 17B. Coomassie blue staining of SDS-PAGE showing eIF4A1 and eIF4A2 preparations used herein. […]

NIH/3T3 cells = test: Sulforhodamine B (SRB) cytotoxicity assay; format: cell-based
Protocol: In cellula activity of rocaglates. All compounds in the rocaglate collection were assessed for cytotoxic activity towards NIH/3T3 cells as well as the rocaglate-resistant line, eIF4A^em1JP, which harbors an F163L mutation in eIF4A1. This mutation was originally identified following selection for RocA-resistant yeast mutants and F163 was subsequently shown to be critical for stacking with ring C of RocA (2) (FIG. 4). Although eIF4A2 is also a target of rocaglates, eIF4A1 F163L is sufficient to confer resistance to rocaglate-induced translation inhibition and cytotoxicity, likely due to eIF4A1 being the more abundant isoform in NIH/3T3 cells (250-fold higher). […] Lastly, although effective at inhibiting cap-dependent translation in vitro, WGD-57-591 (no activity @ 40 nM) and WGD-57-590 (12% growth inhibition @ 40 nM) performed poorly in this assay.
Sulforhodamine B (SRB) assay. NIH/3T3 cells were seeded at a density of 1000 cells/well in a 96 well format and incubated in presence of each 40 nM compound. After 4 days of culture, cells were washed with PBS, fixed with 50% trichloroacetic (TCA) acid for 1 hour, and then stained with 0.5% sulforhodamine B in 1% acetic acid for 15 min. Plates were then washed 5 times with 1% acetic acid, dried, and the stained wells were resuspended with 10 mM Tris (pH 9) prior to measuring the absorbance at 510 nm using (Spectramax M5, Molecular Devices)
FIGS. 26A-26B. In cellula activity of rocaglates. 26A. Cytotoxicity of rocaglates towards NIH/3T3 (grey circle) and the NIH/3T3 rocaglate-resistant line, eIF4A^em1JP(redtriangle). Cells were exposed to 40 nM compound for 4 days and viability was measured using the SRB assay. n=3±SD. 26B. Rocaglates show different sequence preferences for inhibiting cap-dependent translation in cellula. HEK 293 cells were transfected with 0.5 μg of in vitro synthesized capped (AG)10-FF/HCV/Ren or (UC)10-FF/HCV/Ren mRNA and 1h later exposed to the indicated concentrations of compounds for an additional 6 h, at which time extracts were prepared and luciferase activity measured. n=3 SD.

T1 sequence (Q14240 whole entry, species assumed): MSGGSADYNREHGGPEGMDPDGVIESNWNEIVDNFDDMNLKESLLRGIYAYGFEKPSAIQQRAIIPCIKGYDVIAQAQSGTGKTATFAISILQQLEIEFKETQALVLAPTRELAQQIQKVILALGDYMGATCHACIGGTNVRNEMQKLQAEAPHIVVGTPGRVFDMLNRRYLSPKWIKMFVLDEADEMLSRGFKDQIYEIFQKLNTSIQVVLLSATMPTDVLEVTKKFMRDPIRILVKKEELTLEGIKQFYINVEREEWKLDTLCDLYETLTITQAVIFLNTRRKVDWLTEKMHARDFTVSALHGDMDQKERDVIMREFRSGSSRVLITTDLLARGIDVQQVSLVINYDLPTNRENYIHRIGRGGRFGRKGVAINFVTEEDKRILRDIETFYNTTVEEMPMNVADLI

Structure (SMILES): CONC(=O)[C@H]1[C@@H](O)[C@@]2(O)c3c(OC)cc(OC)cc3O[C@@]2(c2ccc(OC)cc2)[C@@H]1c1ccccc1 [CR-1-31-B]
- stimulation of eIF4A2:RNA binding (in words) (eIF4A2:poly r(AG)8 RNA): equally stimulates binding of both eIF4A1 and eIF4A2
- IC50 (NIH/3T3 cells; 4 day exposure, read-out: IC50, cytotoxicity towards NIH/3T3 cells): ~8.5 nM

Structure (SMILES): COC(=O)[C@@H]1[C@@H](c2ccccc2)[C@]2(c3ccc(OC)cc3)Oc3cc(OC)cc(OC)c3[C@@]23N=C(C)N[C@@]13O [9b]
- rank among the top 15 cytotoxic rocaglates (NIH/3T3 cells; 40 nM, 4 days): 10th
